Test results as given in patent US9346795B2, “Substituted sulfonamides useful as antiapoptotic Bcl inhibitors” (Bristol-Myers Squibb Company, priority 2011, dated 2016).

How the values were obtained:
[1] = target: Bcl-xL (Homo sapiens (Human), UniProt Q07817); assay: Bcl-xL/Bim Fluorescence Resonance Energy Transfer Assay (FRET); type: binding
Procedure: Bcl-xL/Bim Fluorescence Resonance Energy Transfer Assay (FRET) The assays were performed in black flat-bottom 384-well plates. The final assay volume was 55 μl prepared from additions of Biotin-Bcl-xL (Bcl-xL: GENBANK® Accession No. […] The reaction was incubated at room temperature for 60 minutes. After 60 minutes, 5 μL of Streptavidin-Terbium FRET detection reagent (Perkin Elmer) was added to the reaction mixture and incubated at room temperature in the dark for 30 mins. […] Compounds were dissolved at 10 mM in dimethylsulfoxide (DMSO) and evaluated at eleven concentrations. IC50 values were derived by non-linear regression analysis.

[2] = target: Bcl-2 (Homo sapiens (Human), UniProt P10415); assay: Bcl-2/Bim Fluorescence Polarization Assay (FPA); type: binding
Procedure: Bcl-2/Bim Fluorescence Polarization Assay (FPA)
The assays were performed in black flat-bottom 384-well plates. […] The reaction was incubated at room temperature for 60 minutes and fluorescence polarization of the reaction was detected on the LJL Plate Reader. Inhibition data were calculated from mP values generated by the no protein control reactions for 100% inhibition and vehicle-only reactions for 0% inhibition. The final concentrations of reagents in the assay were 4.9 nM BCL-2, 5 nM fluoresceinated 18-mer BIM peptide and 1% DMSO. […] Compounds were dissolved at 10 mM in dimethylsulfoxide (DMSO) and evaluated at eleven concentrations. IC50 values were derived by non-linear regression analysis.

Sequence of Bcl-xL (Q07817 whole entry): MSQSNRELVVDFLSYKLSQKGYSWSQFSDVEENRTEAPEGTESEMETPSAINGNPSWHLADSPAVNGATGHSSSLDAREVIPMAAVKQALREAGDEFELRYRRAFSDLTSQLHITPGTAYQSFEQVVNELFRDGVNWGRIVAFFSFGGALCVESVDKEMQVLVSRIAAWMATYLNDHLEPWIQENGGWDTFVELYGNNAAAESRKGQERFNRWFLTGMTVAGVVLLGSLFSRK
Sequence of Bcl-2 (P10415 whole entry): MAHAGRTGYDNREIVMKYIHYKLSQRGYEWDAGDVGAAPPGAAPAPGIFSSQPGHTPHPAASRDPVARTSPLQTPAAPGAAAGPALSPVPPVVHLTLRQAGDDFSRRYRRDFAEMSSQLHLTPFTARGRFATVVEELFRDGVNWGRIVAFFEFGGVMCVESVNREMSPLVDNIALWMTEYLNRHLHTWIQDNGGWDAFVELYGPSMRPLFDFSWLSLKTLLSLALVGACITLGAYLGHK

| Structure (SMILES) | IC50 [1] [nM] | IC50 [2] [nM] |
| --- | --- | --- |
| CCCCN(CCCC)c1ccc(Br)c(-c2ccc(C(=O)NS(=O)(=O)c3ccc4cccc(Cl)c4c3)cc2C(=O)N2CCc3ccccc3C2)n1 [Example 289, 4-(3-Bromo-6-(dibutylamino)pyridin-2-yl)-N-(8-chloronaphthalen-2-ylsulfonyl)-3-(1,2,3,4-tetrahydroisoquinoline-2-carbonyl)benzamide] | 60 | 10 |
| CCCCN(CCCC)C(=O)c1nn(-c2ccc(C(=O)NS(=O)(=O)c3ccc4c(c3)CCN4CC)cc2C(=O)N2CCc3ccccc3C2)c(C)c1Cl [Example 53, N,N-dibutyl-4-chloro-1-(4-(1-ethylindolin-5-ylsulfonylcarbamoyl)-2-(1,2,3,4-tetrahydroisoquinoline-2-carbonyl)phenyl)-5-methyl-1H-pyrazole-3-carboxamide] | 10 | 60 |
| CCCCN(CCCC)C(=O)c1nn(-c2ccc(C(=O)NS(=O)(=O)c3ccc4ccccc4c3)cc2C(=O)N2Cc3ccccc3C[C@H]2COCCO)c(C)c1Cl [Example 119, N,N-Dibutyl-4-chloro-1-(2-((S)-3-((2-hydroxyethoxy)methyl)-1,2,3,4-tetrahydroisoquinoline-2-carbonyl)-4-(naphthalen-2-ylsulfonylcarbamoyl)phenyl)-5-methyl-1H-pyrazole-3-carboxamide] | 10 | 50 |
| CCCN(CCC)c1nn(-c2ccc(C(=O)NS(=O)(=O)c3ccc4cccc(Cl)c4c3)cc2C(=O)N2CCc3ccccc3C2)c(C(F)(F)F)c1Cl [Example 196, 4-(4-Chloro-3-(dipropylamino)-5-(trifluoromethyl)-1H-pyrazol-1-yl)-N-(8-chloronaphthalen-2-ylsulfonyl)-3-(1,2,3,4-tetrahydroisoquinoline-2-carbonyl)benzamide] | 510 | 40 |
| CCCCN(CCCC)C(=O)c1nn(-c2ccc(C(=O)NS(=O)(=O)c3ccc4ccccc4c3)cc2C(=O)N2COc3ccccc3C2)c(C)c1Cl [Example 96, N,N-Dibutyl-4-chloro-1-(2-(3,4-dihydro-2H-benzo[e][1,3]oxazine-3-carbonyl)-4-(naphthalen-2-ylsulfonylcarbamoyl)phenyl)-5-methyl-1H-pyrazole-3-carboxamide] | 60 | 120 |
| CCCCc1c(-c2ccc(C(=O)NS(=O)(=O)c3ccc4ccccc4c3)cc2C(=O)N2CCc3ccccc3C2)c(CO)nn1-c1ccc(Oc2ccc(Cl)cc2)cc1 [Example 242, 4-(5-butyl-1-(4-(4-chlorophenoxy)phenyl)-3-(hydroxymethyl)-1H-pyrazol-4-yl)-N-(naphthalen-2-ylsulfonyl)-3-(1,2,3,4-tetrahydroisoquinoline-2-carbonyl)benzamide] | 40 | 20 |
| CCCCN(CCCC)C(=O)c1nn(-c2ccc(C(=O)NS(=O)(=O)c3ccc4c(c3)CCN4Cc3ccc(Cl)c(Cl)c3)cc2C(=O)N2Cc3ccccc3C[C@H]2CO)c(C)c1Cl [Example 189, N,N-Dibutyl-4-chloro-1-(4-(1-(3,4-dichlorobenzyl)indolin-5-ylsulfonylcarbamoyl)-2-((S)-3-(hydroxymethyl)-1,2,3,4-tetrahydroisoquinoline-2-carbonyl)phenyl)-5-methyl-1H-pyrazole-3-carboxamide] | 40 | 10 |
| CCCCN(CCCC)C(=O)c1nn(-c2ccc(C(=O)NS(=O)(=O)c3ccc4c(Cl)ccc(Cl)c4c3)cc2C(=O)N2CCc3ccccc3C2)c(C)c1Cl [Example 44, N,N-dibutyl-4-chloro-1-(4-(5,8-dichloronaphthalen-2-ylsulfonylcarbamoyl)-2-(1,2,3,4-tetrahydroisoquinoline-2-carbonyl)phenyl)-5-methyl-1H-pyrazole-3-carboxamide] | 30 | 7.25 |
